{"source": "paper PMC9610793", "about": "“Novel Aporphine- and Proaporphine–Clerodane Hybrids Identified from the Barks of Taiwanese Polyalthia longifolia (Sonn.) Thwaites var. pendula with Strong Anti-DENV2 Activity” (Pharmaceuticals, 2022)", "key": {"DENV2": {"tested_on": "DENV2", "assay": "In vitro anti-DENV2 post-infection assay: DENV2 RNA level by RT-qPCR in DENV2-infected Huh-7 cells", "type": "cell-based, DENV serotype 2 (strain 16681)", "conditions": "for SI (selectivity index, SI = CC50/IC50): CC50 in uninfected Huh-7 cells / IC50 against DENV2; for IC50 / EC50: Dengue virus; for IC50: DENV2, Huh-7, 72 h, read-out: IC50 (concentration of the compound resulting in a 50% inhibition in virus production); for EC50: DENV2-infected Huh-7 cells, range over compounds 1–4", "method": "Concerning their biological activity, the anti-DENV2 activity of polyalongarins A–D (1–4) was examined using post-infection assay. The DENV2-infected Huh-7 cells were incubated with each of 1–4 at a concentration of 5, 10, or 20 μM for 72 hrs (0.2 μM celastrol and 0.1% DMSO served as positive control and mock control, respectively). […] Based on previous reports, a compound that diminishes the DENV activity by 90% but presents a 50% cytotoxic concentration (CC50) > 15 μM is considered a “hit”. By this definition, compounds 1–4 are good hits without doubt.\n(§1) Figure 5 In vitro anti-DENV2 assay for 1–4. (A) DENV2-infected/uninfected Huh-7 cells were incubated with celastrol (Cela, 0.2 μM, positive control) or indicated concentrations of 1–4 (5 to 25 μM) for 72 h. Total DENV2 RNA expression (%) was extracted and quantified. The DENV2 RNA level was measured by RT-qPCR. The DENV2 RNA expression was normalized by cellular GAPDH mRNA. (B) DENV2-infected Huh-7 cells were treated with 10 μM of 1–4. The NS2B protein expression was analyzed by western blotting with anti-NS2B and anti-GAPDH antibodies (a loading control). (C) The cell viability (%) was determined by the XTT method. Treatment with 0.1% DMSO served as a mock control. The results are expressed as the means ± standard errors of the means (SEM) of triplicate experiments.\nHuh-7 human liver carcinoma cell line, purchased from Bioresources Collection and Research Center, Taiwan, were maintained in Dulbecco’s modified Eagle’s medium (DMEM) supplemented with 10% fetal bovine serum (FBS), 1% non-essential amino acids (NEAA), and 1% penicillin and streptomycin at 37 °C in a humidified 5% CO2 incubator. The DENV serotype 2 (strain 16681) was directly from the Centers for Disease Control, Department of Health, Taiwan, and was amplified in Aedes albopictus C6/36 cell line (CRL-1660, ATCC, USA). C6/36 cells were cultured in RPMI 1640 medium supplemented with 2% FBS. Huh-7 cells were seeded at a density of 5 × 10^4 cells/mL in the 24-well plate for 16–20 h and then infected with DENV2 at a multiplicity of infection (MOI) of 0.1 PFU/cell for 2 h at 37 °C. The viral titer was determined in a plaque assay in the Huh-7 cells. Then, DENV2-infected Huh-7 cells were washed with PBS and refilled, respectively, with DMEM−2% FBS medium containing […] (positive control), 0.1% DMSO (mock control), and various indicating concentration of test compounds. After incubation at 37 °C for 72 h, DENV2-infected Huh-7 cells were harvested and cell lysates were prepared for quantification of DENV RNA by RT-qPCR. Total cellular RNA was extracted using Total RNA Miniprep Purification Kit (GMbiolab, Taiwan) according to the manufacturer’s instructions."}, "[1]": {"assay": "Cytotoxic assay (XTT cell viability)", "type": "cell-based", "conditions": "human, uninfected Huh-7 cells, read-out: CC50 (concentration of the compound causing a 50% growth inhibition of uninfected Huh-7 cells)", "method": "as §1\nIn structural elucidation, the optical rotations were determined using a JASCO P-1020 polarimeter (Jasco Co., Tokyo, Japan); the ultraviolet spectra (UV) were recorded on a JASCO V530 UV/VIS spectrophotometer; the circular dichroism spectroscopy (CD) were recorded on a JASCO J-815 spectrophotometer; the infrared spectra (IR) were recorded on a Mattson Genesis II FT-IR spectrophotometer (Thermo Nicolet, Madison, WI, USA); electrospray ionization mass (ESIMS) and high-resolution ESIMS data were measured using a VG Biotech Quattro 5022 mass spectrometer (VG Biotech, UK); nuclear magnetic resonance (NMR) spectra were collected on a Varian Unity Inova-400 MHz NMR system; the single crystal X-ray diffraction of pure compounds was determined by Bruker APEX II X-ray single crystal diffractometer. In chemical isolation and separation, column chromatography (CC) was applied including silica gel 60 (70–230 and 230–400 mesh, Merck, Darmstadt, Germany), Sephadex LH-20 (Pharmacia), and pre-coated silica gel TLC plates (aluminum Merck Silica gel 60 F254). […] In biological evaluation, cell viability/cytotoxicity assay was evaluated using CellTiter 96 AQueous One Solution Cell Proliferation Assay (Promega, Madison, WI, USA) according to the manufacturer’s instructions, where the color intensity was detected at 490 nm using a 550 BioRad plate-reader for determining the number of viable cells in proliferation. Computational modeling analyzed by PyMOL 2.0 software (creator is Warren L. DeLano; published by Schrödinger, Inc. 2017; and the latest vision is PyMOL 2.5 vision).\nHuh-7 cells were seeded in 96-well plates at a density 5 × 10^4 cells/well in 120 μL of culture medium and incubated for 6 hr in a humidified CO2 (5%) atmosphere. […] Then, the XTT method was applied to cell viability evaluation: cells were dyed by 2,3-bis(2-methyloxy-4-nitro-5-sulfophenyl)-2H-tetrazolium-5-carboxanilide and recorded by an enzyme-linked immunosorbent assay (ELISA) plate reader (at UV 490 nm). […]"}}}
{"compound": "COc1c2c3c(c(OC)c1OC)-c1ccccc1C[C@H]3N([C@@H]1OC(=O)C=C1CC[C@@]1(C)[C@H](C)CC[C@@]3(C)C(C)=CCC[C@H]13)CC2", "note": "[polyalongarin B (2), Polyalongarin B]", "values": [{"measurement": "SI (selectivity index, SI = CC50/IC50)", "setting": "DENV2", "result": 18}, {"measurement": "IC50", "setting": "DENV2", "result": "2.8 ± 0.23", "unit": "µM"}, {"measurement": "EC50", "setting": "DENV2", "result": "2.8 to 6.4", "unit": "µM"}, {"measurement": "CC50 at 72 h", "setting": "[1]", "result": "50.4 ± 10.2", "unit": "µM"}]}
{"compound": "CC1=CCCC2C1(C)CCC(C)C2(C)CCC1=CC(=O)OC1N1CCc2cc3c(c4c2C1Cc1ccccc1-4)OCO3", "note": "(stereo not shown) [polyalongarin A (1), Polyalongarin A]", "values": [{"measurement": "IC50", "setting": "DENV2", "result": "4.46 ± 0.12", "unit": "µM"}, {"measurement": "EC50", "setting": "DENV2", "result": "2.8 to 6.4", "unit": "µM"}, {"measurement": "CC50 at 72 h", "setting": "[1]", "result": "> 200", "unit": "µM"}]}
{"compound": "CC1=C(O)C(=O)C=C2C1=CC=C1[C@@]2(C)CC[C@@]2(C)[C@@H]3C[C@](C)(C(=O)O)CC[C@]3(C)CC[C@]12C", "note": "[Celastrol, reference compound]", "values": [{"measurement": "IC50", "setting": "DENV2", "result": "0.12 ± 0.01", "unit": "µM"}]}
{"compound": "COc1cc2c(cc1O)CC1c3c(cc(OC)c(OC)c3-2)CCN1C1OC(=O)C=C1CCC1(C)C(C)CCC2(C)C(C)=CCCC21", "note": "(stereo not shown) [polyalongarin C (3), Polyalongarin C]", "values": [{"measurement": "SI (selectivity index, SI = CC50/IC50)", "setting": "DENV2", "result": 21.3}, {"measurement": "IC50", "setting": "DENV2", "result": "3.24 ± 0.16", "unit": "µM"}, {"measurement": "EC50", "setting": "DENV2", "result": "2.8 to 6.4", "unit": "µM"}, {"measurement": "CC50 at 72 h", "setting": "[1]", "result": "69.1 ± 14", "unit": "µM"}]}
{"compound": "COc1cc2c3c(c1OC)C1(C=CC(=O)C=C1)C[C@H]3N([C@@H]1OC(=O)C=C1CC[C@@]1(C)[C@H](C)CC[C@@]3(C)C(C)=CCC[C@H]13)CC2", "note": "[polyalongarin D (4), Polyalongarin D]", "values": [{"measurement": "SI (selectivity index, SI = CC50/IC50)", "setting": "DENV2", "result": 14.9}, {"measurement": "IC50", "setting": "DENV2", "result": "6.36 ± 0.09", "unit": "µM"}, {"measurement": "EC50", "setting": "DENV2", "result": "2.8 to 6.4", "unit": "µM"}, {"measurement": "CC50 at 72 h", "setting": "[1]", "result": "94.5 ± 10.2", "unit": "µM"}]}
